The text below walks through data of article PMC7293822 (ACS chemical biology, 2018).

Series [1] deals with Pd_dinase. Nature of the series: Fluorescent protease assay with AMC substrates, Pd_dinase. The class given is biochemical, Parabacteroidetes distasonis. The note with it: 8 nM Pd_dinase, 50 μM substrate, 30 min, D-PBS, 2 mM DTT.
Series [2] relates to Pd_dinase. In words: Antimicrobial peptide digestion by Pd_dinase, LC-MS/MS. The class given is in vitro ADME, Parabacteroidetes distasonis.
The test system of another series is Pseudomonas aeruginosa. The following applies: cited from earlier work.
A further series has as its system E. coli. The following applies: cited from earlier work.
The subject of the next series is Streptococcus pyogenes. The note with it: cited from earlier work.
For a further series, the system named is Staphylococcus aureus. The following applies: cited from earlier work.
Series [3] concerns Pd_dinase. Nature of the series: Pd_dinase. The note with it: Parabacteroidetes distasonis, up to 30 min.
The test system of a further series is aminopeptidase B. In words: human aminopeptidase B. The following applies: up to 30 min.
A further series relates to trypsin. In words: bovine trypsin. The following applies: up to 30 min.
Series [4] deals with Pd_dinase. In words: Inhibition of Pd_dinase by peptide-AOMK inhibitors. The class given is biochemical, Parabacteroidetes distasonis. The following applies: 50 μM inhibitor, 2 nM Pd_dinase, 50 μM substrate, activity monitored for 4 h.
The next series has as its target T1, bovine trypsin (Bos taurus, UniProt P00760).
T1 sequence (P00760 24-246): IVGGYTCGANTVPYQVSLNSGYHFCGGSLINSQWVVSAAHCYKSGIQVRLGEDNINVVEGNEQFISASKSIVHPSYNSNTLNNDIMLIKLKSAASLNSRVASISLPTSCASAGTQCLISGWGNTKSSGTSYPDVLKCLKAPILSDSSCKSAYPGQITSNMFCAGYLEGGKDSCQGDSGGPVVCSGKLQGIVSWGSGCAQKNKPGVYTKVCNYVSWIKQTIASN
Nature of the series: Fluorescent protease assay with AMC substrates, trypsin. The class given is biochemical. The note with it: 100 nM bovine trypsin, 50 μM substrate, 30 min, D-PBS, 2 mM DTT.

The next series concerns the target human aminopeptidase B (Homo sapiens, UniProt Q9H4A4). Nature of the series: Fluorescent protease assay with AMC substrates, aminopeptidase B. The class given is biochemical. The note with it: 2 nM human aminopeptidase B, 50 μM substrate, 30 min, D-PBS, 2 mM DTT.
Series [5] has as its system Pd_dinase. Nature of the series: 10 nM of Pd_dinase incubated with each antimicrobial peptide. The note with it: Parabacteroidetes distasonis, up to 1200 min.

Numbered stars: 1 amine (or outer) side, 2 acyl side, 3 side chain; on linkers, the order of the positions; unused ones are H or OH. Ends that are not written are not given here. Peptide text beside a SMILES is read from it. * marks the point of attachment. Glutaryl = O=C(CCCC(=O)[*:2])[*:1]; AMC = Cc1cc(=O)oc2cc(N*)ccc12

Chain of human aminopeptidase B (Q9H4A4 whole entry): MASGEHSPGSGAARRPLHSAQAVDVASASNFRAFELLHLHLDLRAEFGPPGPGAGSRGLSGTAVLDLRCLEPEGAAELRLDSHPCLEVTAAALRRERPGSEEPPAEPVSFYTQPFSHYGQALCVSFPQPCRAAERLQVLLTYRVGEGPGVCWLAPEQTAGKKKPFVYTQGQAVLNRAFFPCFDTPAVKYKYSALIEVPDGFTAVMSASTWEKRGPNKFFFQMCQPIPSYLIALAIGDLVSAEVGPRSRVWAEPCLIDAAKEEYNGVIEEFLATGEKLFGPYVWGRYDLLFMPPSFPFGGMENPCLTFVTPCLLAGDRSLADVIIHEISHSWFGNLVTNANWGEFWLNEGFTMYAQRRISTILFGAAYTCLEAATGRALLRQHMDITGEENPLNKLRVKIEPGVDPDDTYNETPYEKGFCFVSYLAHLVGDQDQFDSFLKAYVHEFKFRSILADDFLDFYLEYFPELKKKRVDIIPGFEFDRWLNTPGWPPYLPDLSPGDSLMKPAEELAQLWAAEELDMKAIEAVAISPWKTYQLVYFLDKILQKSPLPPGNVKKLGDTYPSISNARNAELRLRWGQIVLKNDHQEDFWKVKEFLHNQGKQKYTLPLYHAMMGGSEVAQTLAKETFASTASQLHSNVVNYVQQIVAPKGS

As to `Cc1cc(=O)oc2cc(NC(=O)[C@H](CCCNC(=N)N)NC(=O)CN)ccc12` [Gly-Arg-AMC, NH2-Gly-Arg-AMC] (H-Gly-Arg-{AMC}), the “cleavage of AMC substrate by Pd_dinase” value with Pd_dinase [1] is on record as “rapidly hydrolyzes”.

With GGLSSVGGGSSTIK [KAMP-14], the “degradation by Pd_dinase” value in the series on Pd_dinase [2] (10 nM Pd_dinase, 5 μM peptide, 5 to 1200 min, triplicate, LC-MS/MS) is recorded as “degraded into a 12-mer peptide”. Also, the bactericidal activity entry in the series on Pseudomonas aeruginosa, with E. coli, in the series on Streptococcus pyogenes and with Staphylococcus aureus was “bactericidal” each time.

With Glutaryl-Gly-Arg-{AMC}, the not cleaved entry in the series with Pd_dinase [3] is recorded as “does not cleave Glt-Gly-Arg-AMC”; in the series on aminopeptidase B, “aminopeptidase B only cleaved Arg-AMC”.

For NH2-arginine-AMC, the not cleaved result with Pd_dinase [3] is “does not cleave Arg-AMC”; in the series with trypsin it was “failed to hydrolyze Arg-AMC”.

With “NH2-glycine-arginine-AOMK [Gly-Arg-AOMK]”, the “effect on Pd_dinase activity” value in the series with Pd_dinase [4] was “completely inhibited”.

With “Glutaryl-Gly-Arg-{AMC} [Glt-Gly-Arg-AMC]”, in the series on Pd_dinase [1], the “cleavage of AMC substrate by Pd_dinase” value was “does not cleave”. The “rate of cleavage by trypsin relative to Gly-Arg-AMC” value at bovine trypsin amounted to 80 fold.

For the compound `Cc1cc(=O)oc2cc(NC(=O)[C@@H](N)CCCN=C(N)N)ccc12` [Arg-AMC, NH2-arginine-AMC], the “cleavage of AMC substrate by Pd_dinase” value with Pd_dinase [1] is recorded as “does not cleave”. Further, the “cleavage of AMC substrate by aminopeptidase B” value at human aminopeptidase B is given as “only cleaved”. Moreover, the “cleavage of AMC substrate by trypsin” value on bovine trypsin is given as “failed to hydrolyze”.

As for AIGGGLSSVGGGS [KAMP-13], in the series with Pd_dinase [2] (Parabacteroidetes distasonis, isolated protease Pd dinase (10 nM)), the metabolised at 20 h, 5 μM was found to be 15.5%.

H-AIGGGLSSVGGGS-OH: in the series on Pd_dinase [5], the cleaved bond result was “Ile-G, minor” and the fragment found is given as 9-mer peptide.

With H-Gly-Arg-{AMC}, the not cleaved entry with aminopeptidase B is listed as “aminopeptidase B only cleaved Arg-AMC”.
